System: MV-4-11 cells
Assay: Gene expression microarray analysis (Affymetrix PrimeView) and GSEA
Format: cell-based, human
Design: RFU PODN (11730768_x_at) / Fold change /veh PODN (11730768_x_at) / RFU LINC00158 (11744669_a_at) / Fold change /veh LINC00158 (11744669_a_at) / RFU DUSP10 (11751237_a_at) / Fold change /veh DUSP10 (11751237_a_at) / RFU ID3 (11757404_x_at) / Fold change /veh ID3 (11757404_x_at) / RFU PLEKHG5 (11737974_s_at) / Fold change /veh PLEKHG5 (11737974_s_at) / RFU LRRC4B (11730491_at) / Fold change /veh LRRC4B (11730491_at) / RFU GIMAP4 (11747438_a_at) / Fold change /veh GIMAP4 (11747438_a_at) / RFU KRT8 (11758183_x_at) / Fold change /veh KRT8 (11758183_x_at) / RFU CNN1 (11734310_a_at) / Fold change /veh CNN1 (11734310_a_at) / RFU VPS37D (11726825_at) / Fold change /veh VPS37D (11726825_at) / RFU C10orf10 (11716522_x_at) / Fold change /veh C10orf10 (11716522_x_at) / RFU KIR2DL2 /// KIR2DL4 /// KIR2DL5A /// KIR2DL5B /// KIR2DS1 /// KIR2DS2 /// KIR2DS3 /// KIR2DS4 /// KIR3DL3 /// KIR3DL3 /// KIR3DS1 (11738374_at) / Fold change /veh KIR2DL2 /// KIR2DL4 /// KIR2DL5A /// KIR2DL5B /// KIR2DS1 /// KIR2DS2 /// KIR2DS3 /// KIR2DS4 /// KIR3DL3 /// KIR3DL3 /// KIR3DS1 (11738374_at) / RFU C1QL1 (11718748_at) / Fold change /veh C1QL1 (11718748_at) / RFU TMPRSS4 (11747572_a_at) / Fold change /veh TMPRSS4 (11747572_a_at) / RFU HAMP (11756126_x_at) / Fold change /veh HAMP (11756126_x_at) / RFU RNFT2 (11725882_a_at) / Fold change /veh RNFT2 (11725882_a_at) / RFU NR4A2 (11747474_a_at) / Fold change /veh NR4A2 (11747474_a_at) / RFU ABCC12 (11746883_a_at) / Fold change /veh ABCC12 (11746883_a_at) / RFU TMEM136 (11760407_x_at) / Fold change /veh TMEM136 (11760407_x_at) / RFU CLDN22 /// WWC2 (11732394_at) / Fold change /veh CLDN22 /// WWC2 (11732394_at) / RFU HLA-DPB1 (11760878_x_at) / Fold change /veh HLA-DPB1 (11760878_x_at) / RFU SPINT1 (11716480_a_at) / Fold change /veh SPINT1 (11716480_a_at) / RFU GAP43 (11754022_s_at) / Fold change /veh GAP43 (11754022_s_at) / RFU A4GNT (11735810_at) / Fold change /veh A4GNT (11735810_at) / RFU PRB3 (11715151_x_at) / Fold change /veh PRB3 (11715151_x_at) / RFU TUBB4B (11761932_at) / Fold change /veh TUBB4B (11761932_at) / RFU CAPN14 (11732068_a_at) / Fold change /veh CAPN14 (11732068_a_at) / RFU TMCC2 (11721928_a_at) / Fold change /veh TMCC2 (11721928_a_at) / RFU IRGQ (11745062_a_at) / Fold change /veh IRGQ (11745062_a_at) / RFU FAM174B (11720279_a_at) / Fold change /veh FAM174B (11720279_a_at) / RFU TMPRSS4 (11748680_a_at) / Fold change /veh TMPRSS4 (11748680_a_at) / RFU FAM212B (11763350_a_at) / Fold change /veh FAM212B (11763350_a_at) / RFU PLEKHG5 (11743358_a_at) / Fold change /veh PLEKHG5 (11743358_a_at) / RFU ZSCAN30 (11745921_a_at) / Fold change /veh ZSCAN30 (11745921_a_at) / RFU CMKLR1 (11741424_a_at) / Fold change /veh CMKLR1 (11741424_a_at) / RFU LOC101060620 /// MAPK8IP1 (11723275_at) / Fold change /veh LOC101060620 /// MAPK8IP1 (11723275_at) / RFU SPTSSB (11747773_x_at) / Fold change /veh SPTSSB (11747773_x_at) / RFU PRSS12 (11739890_at) / Fold change /veh PRSS12 (11739890_at) / RFU BIN1 (11741810_x_at) / Fold change /veh BIN1 (11741810_x_at) / RFU WNT11 (11732464_a_at) / Fold change /veh WNT11 (11732464_a_at) / RFU C10orf10 (11716521_a_at) / Fold change /veh C10orf10 (11716521_a_at) / RFU C5orf56 (11738089_at) / Fold change /veh C5orf56 (11738089_at) / RFU CYB561 (11721691_x_at) / Fold change /veh CYB561 (11721691_x_at) / RFU ANKRD19P (11752326_a_at) / Fold change /veh ANKRD19P (11752326_a_at) / RFU OR2T12 /// OR2T33 /// OR2T8 (11738714_s_at) / Fold change /veh OR2T12 /// OR2T33 /// OR2T8 (11738714_s_at) / RFU VCAN (11748164_a_at) / Fold change /veh VCAN (11748164_a_at) / RFU JSRP1 (11732532_at) / Fold change /veh JSRP1 (11732532_at) / RFU KRTAP10-11 (11738290_x_at) / Fold change /veh KRTAP10-11 (11738290_x_at) / RFU MYO3A (11730013_a_at) / Fold change /veh MYO3A (11730013_a_at) / RFU EBF3 (11725865_a_at) / Fold change /veh EBF3 (11725865_a_at) / RFU CAMK2N1 (11719241_x_at) / Fold change /veh CAMK2N1 (11719241_x_at) / RFU C5orf56 (11738088_a_at) / Fold change /veh C5orf56 (11738088_a_at) / RFU OLFML3 (11715873_a_at) / Fold change /veh OLFML3 (11715873_a_at) / RFU LOC100653217 /// NTM (11731650_a_at) / Fold change /veh LOC100653217 /// NTM (11731650_a_at) / RFU MAPK11 (11762145_a_at) / Fold change /veh MAPK11 (11762145_a_at) / RFU FIZ1 (11724087_x_at) / Fold change /veh FIZ1 (11724087_x_at) / RFU OASL (11726364_x_at) / Fold change /veh OASL (11726364_x_at) / RFU SOX15 (11748057_x_at) / Fold change /veh SOX15 (11748057_x_at) / RFU CD79A (11719716_a_at) / Fold change /veh CD79A (11719716_a_at) / RFU HIST1H1D (11736915_at) / Fold change /veh HIST1H1D (11736915_at) / RFU CASKIN2 (11723855_a_at) / Fold change /veh CASKIN2 (11723855_a_at) / RFU LOC730098 (11760151_x_at) / Fold change /veh LOC730098 (11760151_x_at) / RFU OR4N2 (11742367_at) / Fold change /veh OR4N2 (11742367_at) / RFU PRRT2 (11749266_a_at) / Fold change /veh PRRT2 (11749266_a_at) / RFU SNX32 (11753110_a_at) / Fold change /veh SNX32 (11753110_a_at) / RFU CDHR5 (11726645_a_at) / Fold change /veh CDHR5 (11726645_a_at) / RFU RCAN1 (11760418_a_at) / Fold change /veh RCAN1 (11760418_a_at) / RFU FAM167A (11723789_a_at) / Fold change /veh FAM167A (11723789_a_at) / RFU FAM26E (11764081_at) / Fold change /veh FAM26E (11764081_at) / RFU ISYNA1 (11749810_s_at) / Fold change /veh ISYNA1 (11749810_s_at) / RFU ACY1 (11761880_at) / Fold change /veh ACY1 (11761880_at) / RFU 11764098_at / Fold change /veh 11764098_at / RFU SAMD14 (11745864_x_at) / Fold change /veh SAMD14 (11745864_x_at) / RFU NPB (11741838_a_at) / Fold change /veh NPB (11741838_a_at) / RFU TMPRSS6 (11731388_a_at) / Fold change /veh TMPRSS6 (11731388_a_at) / RFU KRTAP10-2 (11738614_at) / Fold change /veh KRTAP10-2 (11738614_at) / RFU ARHGAP8 /// PRR5-ARHGAP8 (11727945_x_at) / Fold change /veh ARHGAP8 /// PRR5-ARHGAP8 (11727945_x_at) / RFU KRTAP5-7 /// NADSYN1 (11734609_at) / Fold change /veh KRTAP5-7 /// NADSYN1 (11734609_at) / RFU RASL12 (11751679_a_at) / Fold change /veh RASL12 (11751679_a_at) / RFU CDKN2B (11736163_a_at) / Fold change /veh CDKN2B (11736163_a_at) / RFU PRF1 (11729649_at) / Fold change /veh PRF1 (11729649_at) / RFU, ZNF638 /// ZNF638-IT1 / Fold change vs veh, ZNF638 /// ZNF638-IT1 / RFU, PANK3 / Fold change vs veh, PANK3 / RFU, SH3YL1 / Fold change vs veh, SH3YL1 / RFU, ZEB2 / Fold change vs veh, ZEB2 / RFU, NRIP1 / Fold change vs veh, NRIP1 / RFU, PTTG1IP / Fold change vs veh, PTTG1IP / RFU, CAPN2 / Fold change vs veh, CAPN2 / RFU, MED14 / Fold change vs veh, MED14 / RFU, SNORA58 / Fold change vs veh, SNORA58 / RFU, C1orf63 / Fold change vs veh, C1orf63 / RFU, LRRFIP1 / Fold change vs veh, LRRFIP1 / RFU, NDUFAF7 / Fold change vs veh, NDUFAF7 / RFU, SLC12A2 / Fold change vs veh, SLC12A2 / RFU, IBTK / Fold change vs veh, IBTK / RFU, ESF1 / Fold change vs veh, ESF1 / Fold change vs veh, TMEM50B / RFU, TAOK1 / Fold change vs veh, TAOK1 / RFU, ACBD3 / Fold change vs veh, ACBD3 / RFU, TMA16 / Fold change vs veh, TMA16 / RFU, RWDD3 / Fold change vs veh, RWDD3 / RFU, BCAT1 / Fold change vs veh, BCAT1 / RFU, EDEM3 / Fold change vs veh, EDEM3 / RFU, TMEM33 / Fold change vs veh, TMEM33 / RFU, WDR75 / Fold change vs veh, WDR75 / RFU, AHCTF1 / Fold change vs veh, AHCTF1 / RFU, TFRC / Fold change vs veh, TFRC / RFU, ZDHHC17 / Fold change vs veh, ZDHHC17 / RFU, NOM1 / Fold change vs veh, NOM1 / RFU, ARL8B / Fold change vs veh, ARL8B / RFU, ZBTB11 / Fold change vs veh, ZBTB11 / RFU, TAMM41 / Fold change vs veh, TAMM41 / RFU, KIAA1704 /// LOC100996395 / Fold change vs veh, KIAA1704 /// LOC100996395 / RFU, ING1 / Fold change vs veh, ING1 / RFU, TRMT61B / Fold change vs veh, TRMT61B / RFU, FUBP3 / Fold change vs veh, FUBP3 / RFU, TP53 / Fold change vs veh, TP53 / RFU, TNKS2 / Fold change vs veh, TNKS2 / RFU, ZFP14 / Fold change vs veh, ZFP14 / RFU, ACTR2 / Fold change vs veh, ACTR2 / RFU, PPP3R1 / Fold change vs veh, PPP3R1 / RFU, PIK3R1 / Fold change vs veh, PIK3R1 / RFU, HNRNPA1 / Fold change vs veh, HNRNPA1 / RFU, RNF170 / Fold change vs veh, RNF170 / RFU, ZNF28 / Fold change vs veh, ZNF28 / RFU, RNGTT / Fold change vs veh, RNGTT / RFU, OGT / Fold change vs veh, OGT / RFU, BRD1 / Fold change vs veh, BRD1 / RFU, MARS / Fold change vs veh, MARS / RFU, ZNF655 / Fold change vs veh, ZNF655 / RFU, FAHD1 / Fold change vs veh, FAHD1 / RFU, BDP1 / Fold change vs veh, BDP1 / RFU, LRRCC1 / Fold change vs veh, LRRCC1 / RFU, ARID1A / Fold change vs veh, ARID1A / RFU, ZNF146 / Fold change vs veh, ZNF146 / RFU, ZNF330 / Fold change vs veh, ZNF330 / RFU, GPN3 / Fold change vs veh, GPN3 / RFU, C9orf123 / Fold change vs veh, C9orf123 / RFU, N4BP2L2 / Fold change vs veh, N4BP2L2 / RFU, ARFIP1 / Fold change vs veh, ARFIP1 / RFU, FAM179B / Fold change vs veh, FAM179B / RFU, BCL10 / Fold change vs veh, BCL10 / RFU, UHRF1BP1L / Fold change vs veh, UHRF1BP1L / RFU, BET1 / Fold change vs veh, BET1 / RFU, CNOT2 / Fold change vs veh, CNOT2 / RFU, ZNF268 / Fold change vs veh, ZNF268 / Fold change vs veh, ZNF507 / RFU, DGCR2 / Fold change vs veh, DGCR2 / RFU, WDSUB1 / Fold change vs veh, WDSUB1 / Fold change vs veh, HSP90B1 /// MIR3652 / RFU, ADSS / Fold change vs veh, ADSS / RFU, GK / Fold change vs veh, GK / RFU, ZNF148 / Fold change vs veh, ZNF148 / RFU, TAF9 / Fold change vs veh, TAF9 / RFU, SLC1A5 / Fold change vs veh, SLC1A5 / RFU, SLMO2 / Fold change vs veh, SLMO2 / RFU, ABCC4 / Fold change vs veh, ABCC4 / RFU, LOC101060439 /// RAP1B / Fold change vs veh, LOC101060439 /// RAP1B / RFU, RFX7 / Fold change vs veh, RFX7 / RFU, GTPBP10 / Fold change vs veh, GTPBP10 / RFU, CNEP1R1 / Fold change vs veh, CNEP1R1 / RFU, BIVM-ERCC5 /// ERCC5 / Fold change vs veh, BIVM-ERCC5 /// ERCC5 / RFU, ILF3 / Fold change vs veh, ILF3 / RFU 11762660_at / Fold change /veh 11762660_at / RFU VCAN (11757783_s_at) / Fold change /veh VCAN (11757783_s_at) / RFU DDX43 (11728927_at) / Fold change /veh DDX43 (11728927_at) / RFU KRT8 (11758188_x_at) / Fold change /veh KRT8 (11758188_x_at) / RFU NKD1 (11759106_at) / Fold change /veh NKD1 (11759106_at) / RFU SRD5A1 (11742802_a_at) / Fold change /veh SRD5A1 (11742802_a_at) / RFU TPSAB1 /// TPSB2 (11721975_s_at) / Fold change /veh TPSAB1 /// TPSB2 (11721975_s_at) / RFU GSTM3 (11746129_a_at) / Fold change /veh GSTM3 (11746129_a_at) / RFU IL23R (11737362_x_at) / Fold change /veh IL23R (11737362_x_at) / RFU TMEM51 (11727254_a_at) / Fold change /veh TMEM51 (11727254_a_at) / RFU PIWIL2 (11732686_x_at) / Fold change /veh PIWIL2 (11732686_x_at) / RFU ORM1 (11744905_x_at) / Fold change /veh ORM1 (11744905_x_at) / RFU CCDC152 (11743942_at) / Fold change /veh CCDC152 (11743942_at) / RFU ECM1 (11717891_a_at) / Fold change /veh ECM1 (11717891_a_at) / RFU IL23R (11748794_a_at) / Fold change /veh IL23R (11748794_a_at) / RFU TNFAIP8L3 (11732012_x_at) / Fold change /veh TNFAIP8L3 (11732012_x_at) / RFU MBOAT4 (11741988_at) / Fold change /veh MBOAT4 (11741988_at) / RFU 11764193_at / Fold change /veh 11764193_at / RFU TMEM53 (11763286_at) / Fold change /veh TMEM53 (11763286_at) / RFU MAGEB2 (11727129_at) / Fold change /veh MAGEB2 (11727129_at) / RFU TMEM200A (11744735_a_at) / Fold change /veh TMEM200A (11744735_a_at) / RFU CCDC152 (11751479_a_at) / Fold change /veh CCDC152 (11751479_a_at) / RFU FAM211A (11726209_a_at) / Fold change /veh FAM211A (11726209_a_at) / RFU RGS16 (11746705_a_at) / Fold change /veh RGS16 (11746705_a_at) / RFU VCAN (11755009_s_at) / Fold change /veh VCAN (11755009_s_at) / RFU RHOB (11743442_s_at) / Fold change /veh RHOB (11743442_s_at) / RFU RGS16 (11720943_a_at) / Fold change /veh RGS16 (11720943_a_at) / RFU RGS16 (11720944_at) / Fold change /veh RGS16 (11720944_at) / RFU, VPS4B / Fold change vs veh, VPS4B / RFU, CREB1 / Fold change vs veh, CREB1 / RFU, DNAJC13 / Fold change vs veh, DNAJC13 / RFU, GNAQ / Fold change vs veh, GNAQ / RFU, CDK5R1 / Fold change vs veh, CDK5R1 / RFU, ZRANB3 / Fold change vs veh, ZRANB3 / RFU, CUL4A / Fold change vs veh, CUL4A / RFU, CCNY / Fold change vs veh, CCNY / RFU, UFL1 / Fold change vs veh, UFL1 / RFU, COG3 / Fold change vs veh, COG3 / RFU, DIAPH2 / Fold change vs veh, DIAPH2 / RFU, SKA2 / Fold change vs veh, SKA2 / RFU, AFF3 / Fold change vs veh, AFF3 / RFU, LMF1 / Fold change vs veh, LMF1 / RFU, IPO11 / Fold change vs veh, IPO11 / RFU, DFFB / Fold change vs veh, DFFB / RFU, FOXP1 / Fold change vs veh, FOXP1 / RFU, CARD8 / Fold change vs veh, CARD8 / RFU, STRN3 / Fold change vs veh, STRN3 / RFU, ADK / Fold change vs veh, ADK / RFU, RASSF2 / Fold change vs veh, RASSF2 / RFU, WIPF1 / Fold change vs veh, WIPF1 / RFU, LARP1B / Fold change vs veh, LARP1B / RFU, RASA1 / Fold change vs veh, RASA1 / RFU, RB1 / Fold change vs veh, RB1 / RFU, PPFIA1 / Fold change vs veh, PPFIA1 / RFU, MAT2A / Fold change vs veh, MAT2A / RFU, CCT5 / Fold change vs veh, CCT5 / RFU, WDR92 / Fold change vs veh, WDR92 / RFU, CUX1 / Fold change vs veh, CUX1 / RFU, TTC7A / Fold change vs veh, TTC7A / RFU, TMEM135 / Fold change vs veh, TMEM135 / RFU, DEPTOR / Fold change vs veh, DEPTOR / RFU, CPM / Fold change vs veh, CPM / RFU, DNAJB6 / Fold change vs veh, DNAJB6 / RFU, CACNA2D3 / Fold change vs veh, CACNA2D3 / RFU, DTX4 / Fold change vs veh, DTX4 / RFU, TFCP2 / Fold change vs veh, TFCP2 / RFU, GMCL1 /// GMCL1P1 / Fold change vs veh, GMCL1 /// GMCL1P1 / RFU, AEBP2 / Fold change vs veh, AEBP2 / RFU, SNHG1 /// SNORD22 /// SNORD25 /// SNORD26 /// SNORD27 /// SNORD28 /// SNORD29 /// SNORD31 / Fold change vs veh, SNHG1 /// SNORD22 /// SNORD25 /// SNORD26 /// SNORD27 /// SNORD28 /// SNORD29 /// SNORD31 / Fold change (Aza/veh), C12orf56 (ProbeSet 11735607_a_at) / Fold change (ACY-1035/veh), C12orf56 (ProbeSet 11735607_a_at) / Fold change (Aza/veh), FGFR1OP (ProbeSet 11751329_s_at) / Fold change (ACY-1035/veh), FGFR1OP (ProbeSet 11751329_s_at) / Fold change (Aza/veh), VPS36 (ProbeSet 11739960_a_at) / Fold change (ACY-1035/veh), VPS36 (ProbeSet 11739960_a_at) / RFU SYPL1 (11715823_x_at) / Fold change /veh SYPL1 (11715823_x_at) / RFU IGFBP7 (11715501_s_at) / Fold change /veh IGFBP7 (11715501_s_at) / RFU REEP3 (11722064_at) / Fold change /veh REEP3 (11722064_at) / RFU IGLL1 (11728026_x_at) / Fold change /veh IGLL1 (11728026_x_at): dose or concentration left out as unconfirmed
Conditions: ProbeSet 11755436_x_at; LIST B

SMILES: Nc1ncn([C@@H]2O[C@H](CO)[C@@H](O)[C@H]2O)c(=O)n1 [azacitidine]
- Fold change vs veh, ARID1A: 1.10

Reference: paper PMC5218480 (PLoS ONE, 2017)
